From US20220008500A1, “COMPOSITIONS AND METHODS FOR TREATING HEART FAILURE” (The George Washington University, priority 2017, published 2022)
Where “and” joins values, the source holds several entries; their conditions need not be identical. Equal values may be shown once.

Legend:
IL-1β = assay: Western blot of LV myocardium, IL-1β; type: in vivo, Sprague-Dawley rats; conditions: CNO 1 mg/kg IP daily
Experimental: (§1) TAC+OXT and OXT NORM animals received intraperitoneal (IP) injections of CNO (1 mg/kg) daily, beginning at 5 weeks of age until the animal was sacrificed.
Samples of LV myocardium (n=5-6/group) were flash frozen in liquid nitrogen and stored at −80° C. For western blot analysis of protein expression, samples were thawed and homogenized using the Qproteome Mammalian Protein Prep Kit (Qiagen) in tubes containing metallic beads. Samples were then centrifuged at 14,000 g for 20 minutes and protein concentrations were determined by the Pierce BCA Protein Assay (Thermo Scientific). Laemmli buffer (Bio Rad) with 10% 2-mercaptoethanol (Sigma-Aldrich) was added to the samples and samples were heated to 98° C. Equal protein concentration was loaded into wells containing 4-20% Mini-PROTEAN® TGX™ Gels (Bio Rad). The samples were then run at 100V for 1-1.5 hours to separate proteins by electrophoresis.
After electrophoresis, the samples were transferred to PVDF membranes for 10 min at 25V using the Trans-Blot® Turbo™ Transfer System (Bio Rad). The membranes were blocked with 5% milk for 18 hours. […] Band intensities for collagen III and IL-10 were measured using ImageJ and normalized to the corresponding band intensity for GAPDH.

[1] = tested on: excised Langendorff perfused hearts; assay: Isoproterenol dose response in excised Langendorff perfused hearts (β-adrenergic stimulation); set-up: species or system Sprague-Dawley rats; conditions: hearts of TAC rats given CNO daily
Experimental: At nine weeks of age rats were anesthetized with an IP injection of 0.2 mL Telazol and subject to isoflurane inhalation. Following cessation of pain reflexes, hearts were rapidly excised (n=26) and Langendorff perfused via the aorta at constant pressure (65 mmHg) and temperature (37° C.) with a Krebs-Henseleit solution containing (in mM) 115 NaCl, 3.3 KCl, 2.0 CaCl2, 1.4 MgSO4, 25.0 NaHCO3, 1.0 KH2PO4, 5.0 glucose, and 1.0 lactate. Perfusate was oxygenated with 95% 02-5% CO2. After a stabilization period of 10 minutes, a size 5 balloon (Harvard Apparatus) was inserted into the LV to measure isovolumic LV developed pressure (LVDP). Diastolic pressure was set to 10 mmHg and LVDP was computed as the difference between systolic and diastolic pressures. HR, LVDP, and coronary flow rate (CFR) were measured for at least 15 minutes during sinus rhythm. An isoproterenol (16504, Sigma Aldrich) dose response protocol was then administered using concentrations of 0.01, 0.1, 1, 10, 100, 1000 nM, and HR, LVDP, and CFR were measured at each concentration once function stabilized. After each study, rate pressure product (RPP), an indirect measure of LV work, was calculated as the product of HR and LVDP. Contractility and relaxation were measured as the maximum and minimum values of the first derivative of the LVP waveform, respectively, to assess inotropy and lusitropy.
Measurements in each group were compared using analysis of variance with Tukey post-hoc comparisons (Minitab 17 Statistical Software) to identify significant differences between groups. Myocyte area measurements were analyzed using fully nested ANOVA to account for both number of cells and number of animals. The isoproterenol dose response data was analyzed using a general linear model (GLM) to evaluate the group effect and the isoproterenol dose effect. Tukey post-hoc tests identified pairwise changes between groups at each isoproterenol concentration. Differences were considered significant if p<0.05.

[2] = molecular target: DREADDs in PVN OXT neurons (Homo sapiens, UniProt P20309, A239G/Y149C); assay: Anatomic measurements and histology of hearts after chronic activation of PVN OXT neurons; type: in vivo, Sprague-Dawley rats; set-up: expressed in transfected cells; host or cells: PVN oxytocin neurons of Sprague-Dawley rats, transduced in vivo with a Cre-dependent (double-floxed inverse ORF) viral vector plus an OXT-promoter Cre vector
Description: Pressure overload induced LV hypertrophy was initiated in male Sprague-Dawley rats using a minimally invasive trans-ascending aortic constriction (TAC) procedure. Rats at one week of age were aestheticized by hypothermia and underwent TAC surgery. A 0.5 cm incision was made at the level of the chest, the chest was opened and the thymus was retracted to reveal the aorta. A 4-0 silk suture was passed around the ascending aorta, and with a 25-gauge needle temporarily placed adjacent to the aorta, the suture was tied around both the aorta and needle (TAC and TAC+OXT groups). The needle was then removed, leaving the constricting suture around the aorta. Buprenorphine was applied as an analgesic. Successful constriction was confirmed upon examination of the aorta after each animal was sacrificed.
Additionally, selective activation of DREADDs in PVN OXT neurons decreases both mean arterial pressure and HR in telemetry instrumented conscious unrestrained animals. […] In this system one viral vector expresses Cre recombinase under an OXT promotor. The second vector expresses the excitatory hM3Dq DREADDs22. This is a Cre-dependent vector that has silencing double-floxed inverse open reading frames, which insures expression is only in OXT neurons that selectively express Cre. In each animal, 30-50 nl containing both viral vectors was selectively microinjected into the PVN over a 20 minutes period at 1 week of age.
as §1
In a subset of animals, hearts were excised and cannulated via the aorta, flushed of blood, and weighed after clearing fluid from the chambers. The hearts were cut transversely, halfway between the apex and base, and the thickness of the LV free wall and septum were measured. The tissue was then preserved in 10% formalin for histology. Other hearts from each group were cannulated, flushed with high potassium solution, and then formalin-fixed via retrograde perfusion at constant pressure (60 mmHg). The hearts were cut longitudinally and preserved in 10% formalin for histology. All heart specimens were stained (H&E and Trichrome) to quantify cell size and collagen deposition. Average myocyte transverse cross-sectional (CS) area (μm^2) and the amount of fibrosis (μm^2) observed in a histological section were measured using ImageJ for at least three transverse slices from each heart.

[3] = TAC rats with DREADDs, CNO 1 mg/kg IP daily, 8 weeks post-TAC, listed as TAC + OXT
[4] = TAC rats with DREADDs, CNO 1 mg/kg IP daily, 8 weeks post-TAC, listed as TAC+OXT
[5] = rats without TAC (OXT NORM), CNO 1 mg/kg IP daily

Sequence of DREADDs in PVN OXT neurons (P20309 whole entry Y149C/A239G): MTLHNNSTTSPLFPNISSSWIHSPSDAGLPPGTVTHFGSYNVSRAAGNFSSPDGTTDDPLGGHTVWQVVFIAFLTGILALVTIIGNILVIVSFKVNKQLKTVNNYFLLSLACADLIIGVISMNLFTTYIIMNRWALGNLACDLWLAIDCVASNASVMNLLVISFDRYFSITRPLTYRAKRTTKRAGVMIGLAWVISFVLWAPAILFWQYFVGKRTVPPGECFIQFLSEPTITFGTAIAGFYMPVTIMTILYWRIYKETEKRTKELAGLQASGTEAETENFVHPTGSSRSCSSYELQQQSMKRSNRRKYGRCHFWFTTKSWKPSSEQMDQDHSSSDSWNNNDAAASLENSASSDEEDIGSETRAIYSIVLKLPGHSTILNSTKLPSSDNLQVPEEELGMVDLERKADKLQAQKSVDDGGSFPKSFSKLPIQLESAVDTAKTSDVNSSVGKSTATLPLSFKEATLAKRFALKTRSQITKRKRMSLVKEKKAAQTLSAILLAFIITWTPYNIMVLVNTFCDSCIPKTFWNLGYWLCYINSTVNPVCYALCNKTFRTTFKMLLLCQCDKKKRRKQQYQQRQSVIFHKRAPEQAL

## C[N+]1([O-])CCN(C2=Nc3cc(Cl)ccc3Nc3ccccc32)CC1 [CNO, clozapine N-oxide]
IL-1β; TAC rats with DREADDs
  IL-1β expression (band intensity normalized to GAPDH): 0.50±0.2 change from Control
IL-1β; rats without TAC (OXT NORM)
  IL-1β expression (band intensity normalized to GAPDH): 0.21±0.14 change from Control
[1]; compared with Control and TAC hearts
  HR response to increasing isoproterenol concentration: greatest increase in HR
[1]; isoproterenol 1000 nM
  CFR at the highest isoproterenol concentration: 15 ± 1.9 mL/min
  Contractility at the highest isoproterenol concentration: 3,936±589 mmHg/s
  RPP at the highest isoproterenol concentration: 38,017±4,303 mmHg*bpm
  Relaxation at the highest isoproterenol concentration: −3,258±495 mmHg/s
[2]; TAC rats with DREADDs, CNO 1 mg/kg IP daily from 5 weeks of age, 8 weeks post-TAC, listed as TAC + OXT
  Myocyte area (transverse cross-sectional area): 584 ± 51^+ μm^2
[2]; TAC rats with DREADDs, CNO 1 mg/kg IP daily from 5 weeks of age, 8 weeks post-TAC, listed as TAC+OXT
  Myocyte area (transverse cross-sectional area): 601±23 μm^2
[2]; TAC rats with DREADDs, CNO 1 mg/kg IP daily, 8 weeks post-TAC
  Body weight: 298 ± 17^ g
[2]; [3]
  Fibrosis: 2407 ± 723^+ μm^2
  Heart weight: 1.75 ± 0.21 g
  LV wall thickness (LV free wall): 5.53 ± 0.34 mm
  Septum thickness: 3.99 ± 0.14 mm
[2]; [4]
  Fibrosis: 2407±723 μm^2
  Heart weight: 1.74 ± 0.2 g
  LV wall thickness (LV free wall): 5.22±0.3 mm
  Septum thickness: 3.9±0.2 mm
[2]; rats without TAC (OXT NORM) with DREADDs, CNO 1 mg/kg IP daily
  Myocyte area (transverse cross-sectional area): 368±20 μm^2 and 365 ± 90 μm^2
[2]; [5]
  Body weight: 357 ± 24 g
  Fibrosis: 918±112 μm^2
  Heart weight: 2.19 ± 0.2 g and 2.19 ± 0.17 g
  LV wall thickness (LV free wall): 3.69±0.1 mm and 3.69 ± 0.10 mm
  Septum thickness: 3.18±0.1 mm and 3.18 ± 0.12 mm
